Assay results reported in patent US20090131469A1, “PHARMACEUTICAL AGENT COMPRISING SOLIFENACIN” (ASTELLAS PHARMA INC., priority 2005, published 2009).
Where a name gives a salt, the structure may show the parent alone.

Legend:
[1] = test system: patients with unstable bladder; assay: Clinical study of urinary urgency, pollakiuria and urinary incontinence: patients with unstable bladder; assay type: in vivo, human
Experimental: (§1) A clinical study was conducted in patients with urinary urgency, pollakiuria and urinary incontinence under the conditions described below. The causes of urinary urgency, pollakiuria and urinary incontinence were separated into neurogenic bladder (due to cerebral infarction or brain disorder due to brain contusion, peripheral neuropathy, and spinal cord disorder due to cervical or lumbar spondylosis, spondylitis deformans, cervical or lumbar spondylolisthesis, disk herniation, spinal stenosis and the like) and unstable bladder (without accompanying neurological diseases, urinary tract infections and calculi, irradiation history to the lumbar part and tumors in the pelvic organs that can be causal disease of detrussor hyperactivity) and analyses were done.
(§2) Male and female patients aged 20 years or older who presented symptoms of urinary urgency, pollakiuria and urinary incontinence for 6 months or a longer period, the number of micturition per 24 hours was 8 on average or higher and satisfied at least one of the following conditions (1) and (2):
(§3) (1) Having at least one episode of urge urinary incontinence per 24 hours on average (2) Having at least one episode of urinary urgency per 24 hours on average. Patients with stress urinary incontinence, psychogenic pollakiuria and the like were excluded. In addition, patients with complication of urinary tract infection, urinary calculi, interstitial cystitis, bladder tumor and the like were also excluded.
(§4) Group P: Placebo (Sham drug) Group S5: 5 mg of solifenacin succinate (corresponding to 3.8 mg of solifenacin calculated as a free base) Group S10: 10 mg of solifenacin succinate (corresponding to 7.5 mg of solifenacin calculated as a free base) Group B: 20 mg of propiverine hydrochloride
(§5) All the groups received oral administration once daily for 12 weeks.

[2] = test system: patients with neurogenic bladder; assay: Clinical study of urinary urgency, pollakiuria and urinary incontinence: patients with neurogenic bladder; assay type: in vivo, human; conditions: for improving effect on pollakiuria (in words) / improving effect on urinary incontinence (in words) / improving effect on urinary urgency (in words): solifenacin succinate 5 mg and 10 mg (Groups S5, S10), propiverine hydrochloride 20 mg (Group B), oral once daily for 12 weeks
Experimental: as §1, §2, §3, §4, §5

[3] = test system: rat model of pollakiuria associated with neurogenic bladder due to cerebral infarction; assay: Rat model of pollakiuria due to cerebral infarction (cystometry); assay type: in vivo; conditions: male SD rats with cerebral infarction; intravenous administration; 30 minutes after drug administration
Experimental: Male SD rats (270 g to 320 g) were used for the test. After the rats were anesthetized with pentobarbital (50 mg/kg), a vesical fistula cannula and a cannula for drug administration were inserted and indwelled in the bladder and the jugular vein, respectively. A cannula was also inserted and indwelled in the common carotid vein for drug administration. Cerebral infarction was prepared according to the method of Longa et al. (Stroke, 1989, vol. 20, p. 84-91) 2 to 3 days after the surgery. Under halothane anesthesia, the cervical part was incised and a nylon thread was inserted from the common carotid artery to the internal carotid artery and the tip of the thread was carried forward to the origin of the middle cerebral artery and indwelled to induce cerebral ischemia. On the next day, neurological symptoms were observed and scored according to the method of Garcia, et al. (Stroke, 1995, Vol. 26, p. […]) and rats having moderate or more severe symptoms (with a score of 13 or less) were selected.
After awakening from anesthesia, the rats were maintained in Bollman cages. The vesical fistula cannula was connected to a syringe pump via a three-way stopcock and physiological saline was continuously infused into the bladder to induce micturition reflex. Another end of the three-way stopcock was connected to a pressure transducer to measure intravesical pressure. After stabilization of micturition reflex, the test drug was administered through the catheter for drug dose inserted in the external carotid vein.
The volume of physiological saline required to induce a single micturition reflex at 30 minutes after drug administration, that is, bladder capacity and the voided volume per micturition were measured. The results are shown as mean±standard error.
The Student's t-test was used for a comparison between the sham surgery group and the cerebral infarction group and the Dunnett's multiple comparison test was used for a comparison between the group receiving drug administration and the group not receiving drug administration in the cerebral infarction group.

[4] = Group B: 20 mg oral once daily for 12 weeks
[5] = Group S5: 5 mg oral once daily for 12 weeks
[6] = Group S10: 10 mg oral once daily for 12 weeks

`CCCOC(C(=O)OC1CCN(C)CC1)(c1ccccc1)c1ccccc1` [propiverine hydrochloride, reference compound] was tested, and the “Difference of change in the number of micturitions from that in Group P” value [1, 4] was −0.99, the “Difference of change in the number of urinary incontinence episodes from that in Group P” value [1, 4] was −0.50 and the “Difference of change in the number of urinary urgency episodes from that in Group P” value [1, 4] was −1.08. For the same molecule, the “Mean change in the number of micturitions” value [1, 4] was −1.90, the “Mean change in the number of urinary incontinence episodes” value [1, 4] was −1.23 and the “Mean change in the number of urinary urgency episodes” value [1, 4] was −2.33. For the same molecule, the “Difference of change in the number of micturitions from that in Group P” value [2, 4] was “+0.23”, the “Difference of change in the number of urinary incontinence episodes from that in Group P” value [2, 4] was −1.01 and the “Difference of change in the number of urinary urgency episodes from that in Group P” value [2, 4] was “+0.18”. The “Mean change in the number of micturitions” value [2, 4] was −1.25, the “Mean change in the number of urinary incontinence episodes” value [2, 4] was −1.62 and the “Mean change in the number of urinary urgency episodes” value [2, 4] was −1.65. For the same molecule, the “improving effect on pollakiuria (in words)” value [2] was “no improving effect on pollakiuria was observed”, the “improving effect on urinary incontinence (in words)” value [2] was “improved urinary incontinence” and the “improving effect on urinary urgency (in words)” value [2] was “improving effect on urinary urgency was not observed”. The “doses that increased the bladder capacity” value [3] was no less than 1 mg/kg and the “doses that increased the voided volume” value [3] was no less than 0.3 mg/kg.

`O=C(O[C@H]1CN2CCC1CC2)N1CCc2ccccc2[C@@H]1c1ccccc1` [solifenacin succinate, (3R)-quinuclidin-3-yl (1S)-1-phenyl-1,2,3,4-tetrahydroisoquinoline-2-carboxylate] was tested, and the “Difference of change in the number of micturitions from that in Group P” value [1, 5] was −1.02, the “Difference of change in the number of urinary incontinence episodes from that in Group P” value [1, 5] was −0.85 and the “Difference of change in the number of urinary urgency episodes from that in Group P” value [1, 5] was −1.13. The “Mean change in the number of micturitions” value [1, 5] was −1.93, the “Mean change in the number of urinary incontinence episodes” value [1, 5] was −1.58 and the “Mean change in the number of urinary urgency episodes” value [1, 5] was −2.38. The “Difference of change in the number of micturitions from that in Group P” value [1, 6] was −1.26, the “Difference of change in the number of urinary incontinence episodes from that in Group P” value [1, 6] was −0.88 and the “Difference of change in the number of urinary urgency episodes from that in Group P” value [1, 6] was −1.56. For the same molecule, the “Mean change in the number of micturitions” value [1, 6] was −2.17, the “Mean change in the number of urinary incontinence episodes” value [1, 6] was −1.61 and the “Mean change in the number of urinary urgency episodes” value [1, 6] was −2.81. For the same molecule, the “Difference of change in the number of micturitions from that in Group P” value [2, 5] was −0.56, the “Difference of change in the number of urinary incontinence episodes from that in Group P” value [2, 5] was −1.19 and the “Difference of change in the number of urinary urgency episodes from that in Group P” value [2, 5] was −1.03. For the same molecule, the “Mean change in the number of micturitions” value [2, 5] was −2.04, the “Mean change in the number of urinary incontinence episodes” value [2, 5] was −1.80 and the “Mean change in the number of urinary urgency episodes” value [2, 5] was −2.86. For the same molecule, the “Difference of change in the number of micturitions from that in Group P” value [2, 6] was −1.11, the “Difference of change in the number of urinary incontinence episodes from that in Group P” value [2, 6] was −0.79 and the “Difference of change in the number of urinary urgency episodes from that in Group P” value [2, 6] was −0.60. The “Mean change in the number of micturitions” value [2, 6] was −2.59, the “Mean change in the number of urinary incontinence episodes” value [2, 6] was −1.40 and the “Mean change in the number of urinary urgency episodes” value [2, 6] was −2.43. For the same molecule, the “improving effect on pollakiuria (in words)” value [2] was “improving effect on pollakiuria was observed”, the “improving effect on urinary incontinence (in words)” value [2] was “improve all the symptoms of urinary urgency, pollakiuria and urinary incontinence” and the “improving effect on urinary urgency (in words)” value [2] was “improving effect on urinary urgency was observed”. For the same molecule, the “doses that increased the bladder capacity” value [3] was no less than 0.03 mg/kg and the “doses that increased the voided volume” value [3] was no less than 0.03 mg/kg.
